Where a name gives a salt, the structure may show the parent alone.
Target: T1, histamine-3 (H3) receptor (Homo sapiens, UniProt Q9Y5N1)
T1 construct: expressed in transfected cells; host or cells: HEK293T
Test: Methyl Histamine Binding in Human Histamine-3 Receptor Cell Line
Conditions: membranes of stably transfected HEK293T cells, radioligand 1 nM, Ki from IC50 by Cheng-Prusoff
Protocol: Evaluation of Methyl Histamine Binding in Human Histamine-3 Receptor Cell Line
The affinity of test compounds for the histamine-3 (H3) receptor is evaluated in the following manner. Stably transfected HEK293T cells are grown in DMEM containing 10% heat inactivated FBS and G-418 (500 ug/ml). Cells are scraped from the plate, transferred to centrifuge tubes, washed one time in PBS by centrifugation in a Sorvall RT7 Plus centrifuge (2000 rpm 10 minutes, 4° C.). The resulting pellets are stored at 80° C. until ready for use. Cells are re-suspended in buffer (50 mM Tris pH=7.5) and placed in a Dounce homogenizer, douncing ten times to homogenize cells. The homogenate is spun down by centrifugation (Sorvall RT7 Plus, 1800 rpm 10 minutes, 4° C.). The supernatant is placed in a Corex tube and spun down by centrifugation (Sorvall RC 5c Plus, 17,000 rpm 20 minutes, 4° C.). The pellet is resuspended in buffer (50 mM Tris, pH 7.5). Protein concentration (ug/ul) is determined using the Micro-BCA Protein Determination. The binding assay is set up in a 96 well microtiter plate in a total volume of 250 uL. Non-specific binding is determined in the presence of 10 uM clobenpropit. The final radioligand concentration is 1 nM. The test compound is serially diluted using the Beckman Biomek2000 to a final approximate range of 100 uM to 100 pM. Membranes are suspended in buffer, homogenized in 2 bursts of ten seconds using a Vitris mechanical homogenizer set at power setting 5. Ten μg of membranes are added to each well. Following a one hour incubation at 30° C., the reaction is terminated by the addition of ice cold buffer and rapid filtration with a Packard Filtermate Harvester through a GF/B filter pre-soaked with 1% PEI for one hour. The plate is dried for one hour at 37° C. and 60 μL Microscint Scintillant is added to each well. The CPM per well is measured on a Packard Top Count NXT. Ki values are determined in nM. The Ki is calculated from the IC50 (i.e. the concentration of competing ligand which displaces 50% of the specific binding of the radioligand). CPM values are expressed as % specific binding and plotted vs compound concentration. A curve is fitted using a four-parameter logistic fit and the IC50 value is determined. The Ki is calculated from this using the Cheng-Prusoff equation: […]=IC50/1+(L/Kd) where L=concentration of free radioligand used in the assay, and Kd is the dissociation constant of the radioligand for the receptor. L is determined for each experiment by counting an aliquot of the diluted radioligand (corresponding to that added to each well) and the Kd has previously been determined under identical conditions for this cell line/radioligand.

T1 sequence (Q9Y5N1 whole entry): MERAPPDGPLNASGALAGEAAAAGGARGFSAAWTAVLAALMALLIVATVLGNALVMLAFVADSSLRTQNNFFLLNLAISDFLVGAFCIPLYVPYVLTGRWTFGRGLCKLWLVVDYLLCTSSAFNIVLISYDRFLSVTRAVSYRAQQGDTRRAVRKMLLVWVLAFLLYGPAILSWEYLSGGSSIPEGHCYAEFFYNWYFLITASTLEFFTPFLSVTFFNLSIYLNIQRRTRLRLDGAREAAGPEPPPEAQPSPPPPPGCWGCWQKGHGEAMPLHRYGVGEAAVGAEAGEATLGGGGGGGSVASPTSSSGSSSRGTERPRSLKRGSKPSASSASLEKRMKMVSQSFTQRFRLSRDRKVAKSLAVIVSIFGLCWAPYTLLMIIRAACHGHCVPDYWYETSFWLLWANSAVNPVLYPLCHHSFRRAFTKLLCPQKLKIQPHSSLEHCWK

Q: Which Ki does the source give for `c1ccc(-c2nc3ccccc3n2Cc2ccc(-c3nc(CN4CCCCC4)co3)cc2)cc1` [Example 123, 2-phenyl-1-{4-[4-(piperidin-1-ylmethyl)-1,3-oxazol-2-yl]benzyl}-1H-benzimidazole] here?
A: ≤ 0.01 µM

Q: Which Ki does the source give for `Cn1c(CN2CCCC2)cnc1-c1ccc(Cn2cnc3ccccc32)cc1` [Example 139, 1-[4-(1-Methyl-5-pyrrolidin-1-ylmethyl-1H-imidazol-2-yl)-benzyl]-1H-benzoimidazole fumarate salt] here?
A: 0.0501 to 0.1 µM

Q: For `C[C@H]1CCCN1Cc1cnc(-c2ccc(Cn3cnc4ccccc43)cc2)n1C` [Example 140, (5)-1-(4-(1-methyl-5-((2-methylpyrrolidin-1-yl)methyl)-1H-imidazol-2-yl)benzyl)-1H-benzo[d]imidazole fumarate salt], which Ki is on record?
A: ≤ 0.01 µM

Q: With `Cn1c(CN2CCCC2)cnc1-c1ccccc1` [Example 143, 1-Methyl-2-phenyl-5-pyrrolidin-1-ylmethyl-1H-imidazole fumarate salt] as the compound, how does the Ki read?
A: > 0.1 µM

Q: `Cn1c(CN2CCCC2)cnc1-c1ccc(C#N)cc1` [Example 144, 4-(1-Methyl-5-pyrrolidin-1-ylmethyl-1H-imidazol-2-yl)-benzonitrile fumarate salt] was tested. Which Ki did it give?
A: > 0.1 µM

Q: For `Cn1c(CN2CCCC2)cnc1-c1ccc(F)cc1` [Example 145, 2-(4-Fluoro-phenyl)-1-methyl-5-pyrrolidin-1-ylmethyl-1H-imidazole fumarate salt], which Ki is on record?
A: > 0.1 µM

Q: Which Ki does the source give for `Cn1c(CN2CCCC2)cnc1-c1ccc(-c2ccccc2)cc1` [Example 146, 2-Biphenyl-4-yl-1-methyl-5-pyrrolidin-1-ylmethyl-1H-imidazole fumarate salt] here?
A: > 0.1 µM

Q: Which Ki does the source give for `Cn1c(CN2CCCC2)cnc1-c1ccc(-n2cnc3ccccc32)cc1` [Example 151, 1-[4-(1-Methyl-5-pyrrolidin-1-ylmethyl-1H-imidazol-2-yl)-phenyl]-1H-benzoimidazole fumarate salt] here?
A: ≤ 0.01 µM

— patent publication US7803825B2, “Aminoalkylazole derivatives as histamine-3 antagonists” (Wyeth LLC, priority 2007, dated 2010)
